# From PubChem BioAssay AID743267 (Broad Institute, 2014)
# Tested on: human bronchial epithelial cells, CFTR corrector, plate reader
# Test: CFTR ΔF508 corrector activity in bronchial cells, dose response, human bronchial epithelial cells, plate reader, cherry-pick, two tests (AID 743267)
# [1] = measured here: test 2 replicate run
# [2] = measured here: test 1 replicate run
SMILES,AC50 [1] [µM],AC50 [2] [µM]
CCOc1cc(/C=N/NC(=O)N/N=C/c2ccc(O)c(OCC)c2)ccc1O,4.92,–
CCOc1ccccc1N1CCN(C(=O)c2cc3ccccc3cc2OC)CC1,3.45,–
CC(=O)c1cccc(Nc2c3c(nc4ccccc24)CCC3)c1,2.69,–
COc1ccc(OC)c2[nH]c(C(=O)N/N=C/c3ccccc3O)cc12,2.6,–
CCCOc1cc(N(CC)CC)ccc1/C=C(/C#N)c1nc2ccc(C)cc2[nH]1,6.15,–
CCOc1ccc(Cl)cc1C1=CC(=O)C[C@H](c2ccc(OC)cc2)C1,1.92,–
CC1(C(=O)NCc2cccs2)Cc2c(-c3ccc4c(c3)OCO4)ccnc2O1 (configuration not stated),2.69,–
CCCC(=O)Nc1nc2ccc(NC(=O)c3c(F)c(F)c(OC)c(F)c3F)cc2s1,1.13,–
COC(=O)c1cc2c(=O)c3ccccc3oc2nc1/C=C/N(C)C,0.984,–
COC(=O)C1=CN(c2ccc3c(c2)OCO3)C(N)=C(C#N)C1c1cccc(F)c1 (configuration not stated),1.55,–
O=C1/C(=C\c2ccc(O)cc2)SC(=S)N1Cc1ccccc1,20.5,–
CC(C)n1cc(/C=C/c2cc[n+](C)cc2)c2ccccc21,27.2,–
Cn1cc(C(=O)N/N=C/c2ccc3c(c2)OCO3)c2ccccc21,9.88,–
COc1ccc(S(=O)(=O)NCc2ccccn2)cc1NC(=O)c1ccccc1F,1.32,–
Cc1cc(C(=O)N/N=C/c2ccc3c(c2)OCO3)c2ccccc2n1,3.76,–
O=C(C1CCCC1)N1CC(=O)N2[C@H](CO)[C@@H](c3ccc(-c4ccccc4F)cc3)[C@@H]2C1,–,4.47
COC(=O)Cn1c(=NC(=O)c2cc(-c3cccs3)nc3ccccc23)sc2cc(S(N)(=O)=O)ccc21,> 50,–
COc1ccc(S(=O)(=O)Nc2ccc3c(c2)C(=O)N([C@@H](C)CO)C[C@@H](C)[C@H](CN(C)Cc2ccc(Oc4ccccc4)cc2)O3)cc1,–,0.13
COc1cc(NC(=O)COC(=O)c2n[nH]c3ccccc23)c(C)cc1[N+](=O)[O-],36.6,–
O=C(N/N=C/c1ccccc1OC(F)F)c1cc(-c2ccncc2)nc2ccccc12,0.798,–
CC(C)(C)C1COc2ccccc2N1C(=O)c1cccc(Cl)c1 (configuration not stated),1.63,–
N#Cc1ccc(-c2ccc3c(c2)[C@H]2[C@H](CCN2S(=O)(=O)c2ccccc2F)[C@@H](CO)N3)cc1,–,6.96
Cc1ccc(-c2ccc3c(c2)O[C@H](CN(C)Cc2ccccn2)[C@@H](C)CN([C@H](C)CO)S3(=O)=O)cc1,–,5.08
Cc1cc(C(=O)CCC(=O)NC(C)c2ccc(S(N)(=O)=O)cc2)c(C)s1 (configuration not stated),> 50,–
CC(OC(=O)CCCC(=O)Nc1ccc(F)cc1)C(=O)c1ccccc1 (configuration not stated),> 50,–
COc1ccc(O)c(/C=N/NC(=O)c2ccc(N3CCCC3=O)cc2)c1,8.14,–

SMILES,AC50 [1] [µM],AC50 [2] [µM]
CN(CC(=O)NCCc1ccc(S(N)(=O)=O)cc1)CC(=O)Nc1ccc(Cl)c(C(F)(F)F)c1,27.9,–
COc1ccc(S(=O)(=O)Nc2ccc3c(c2)C(=O)N([C@H](C)CO)C[C@@H](C)[C@@H](CN(C)Cc2ccc(C(F)(F)F)cc2)O3)cc1,–,> 50
Cc1nc(/N=C(\N)NC(=O)NC2CCCCC2)nc2ccccc12,2.76,–
O=C(Nc1ccccc1)c1nc[nH]c1C(=O)Nc1ccccc1F,28.3,–
COc1ccc(C(=O)NCC(c2ccco2)N2CCc3ccccc32)cc1 (configuration not stated),2.69,–
COc1ccc2cc(CN(CC3CCCO3)C(=S)Nc3ccccc3)c(=O)[nH]c2c1 (configuration not stated),> 50,–
COC(=O)C1CC23C=CCN4CCC5(c6ccccc6NC15C2C)C43 (configuration not stated),4.17,–
Oc1cccc(/C=N/Nc2ccc(Cl)nn2)c1O,16,–
CCN1CCCC(OC(=O)c2cc(-c3ccccc3Cl)nc3ccccc23)C1 (configuration not stated),43.9,–
O=C1CCC(CCc2nc3ccccc3[nH]2)(c2ccccc2)C(=O)N1 (configuration not stated),36.3,–
CN(C[C@H](Cc1ccccc1)N(C[C@H](Cc1ccccc1)N(CCC(C)(C)C)N=O)N=O)N=O,47.9,–
Cc1ccc(N2CC(C(=O)N(C)CC(=O)Nc3ccc(Cl)c(C(F)(F)F)c3)CC2=O)cc1 (configuration not stated),33.3,–
O=c1cc(-c2ccc(O)c(O)c2)oc2cc(O)cc(O)c12,29.3,–
Nc1ccc(-c2c3ccc(=O)cc-3oc3cc(O)ccc23)cc1C(=O)O,7.85,–
COc1ccc(OC)c(-c2cc(-c3cccnc3)nc(N)c2C#N)c1,2.43,–
COc1cc2c(C#CCCO)c(-c3ccsc3)oc(=O)c2cc1OC,5.52,–
OC[C@@H]1CN(Cc2ccc(-c3ccccc3)cc2)C[C@H](n2cnc3c(NC4CC4)ncnc32)O1,> 50,–
COc1cc(SC)ccc1C(=O)N1CCN(c2ccccc2OC)CC1,6.62,–
COc1ccccc1NC(=S)N(Cc1ccco1)Cc1cc2cc(C)cc(C)c2[nH]c1=O,7,–
Cc1cc(C)c(/C=C2\C(=O)Nc3ccccc32)[nH]1,10.8,–
N#Cc1ccc(-c2cccs2)nc1SCc1cccnc1,0.519,–
COc1cc(-c2cnc3c(NC=O)cc(-c4cccc(C(F)(F)F)c4)cn23)cc(OC)c1OC,7.05,–
O=c1ccc2[n+]([O-])c3ccc(O)cc3oc-2c1,26.3,–
NS(=O)(=O)c1ccc(NC(=O)c2cccc3cc4ccccc4nc23)cc1,4.75,–
N#CC1c2ccccc2-c2ccccc2N1C(=O)c1ccccc1 (configuration not stated),4.85,–
CCN1/C(=C\c2ccc3cc(C)ccc3[n+]2CC)Sc2cc(C)c(C)cc21,9.9,–
